Reference: patent US12280072B2, “Oligosaccharide compound for inhibiting intrinsic coagulation factor X-enzyme complex, and preparation method therefor and uses thereof” (Jiuzhitang Co., Ltd., priority 2017, dated 2025)

Columns and labels:
mouse tail bleeding = experiment: Bleeding tendency detection (tail-clipping method); format: in vivo; conditions: mice, sc., high dose of equal multiple of the equivalent antithrombotic dose, vs LMWH
Method: Grouping and administration: Mice were randomly divided into 10 groups with 8 animals in each group. The experimental groups and the dose of the animals in each group were (1) natural saline (NS) control group; (2) LMWH 4.0 mg/kg group; (2) LMWH 20 mg/kg group; (3) LMWH 100 mg/Kg group; (4) A2 5 mg/kg group; (5) A2 25 mg/kg group; (6) A2 125 mg/kg group; (7) D1 5 mg/kg group; (8) D1 25 mg/Kg group; (10) D1 125 mg/kg group. The […] in each group were administered subcutaneously (sc.) into the back, and the dose volume was 10 mL/kg.
After 60 min of subcutaneous administration in each experimental group, the mice were placed in a mouse holder, and the tail tip was cut by 5 mm by tail-clipping method, and the mouse tail was immersed in 40 mL of purified water (37° C.) in the beaker. […] At 60 min, the beaker was placed for 60 min and then the absorbance of the solution (OD540) was detected by a UV spectrophotometer.
In addition, whole blood of healthy mice was taken, and the whole blood of different volumes of mice was added to 40 mL of purified water, stirred uniformly and allowed to stand for 60 min. The absorbance (OD540) of the solution was detected by the same method and the volume-absorbance curve was plotted and used as the standard curve for calculating the amount of bleeding. The amount of bleeding in each experimental group was calculated by the standard curve. […]

human-controlled plasma [1] = experiment: Anticoagulant activity assay: PT clotting time; format: biochemical
How it was run: (§1)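 Compounds in Tris-HCl buffer were serially diluted, and 10 μL was added to 90 μL human control plasma. PT and APTT clotting times were measured on an MC-4000 coagulometer following kit instructions.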

[2] = test system: inferior vena cava thrombosis; experiment: Anti-venous thrombosis experiment (rabbit brain powder infusion plus ligation); format: in vivo, SD rats; conditions: rats, sc., experimental dose (2.5, 5.0, 10 mg/kg)
Method: Grouping and Administration: Rats were randomly divided into 8 groups with 8 animals in each group. The experimental groups and the dose of the animals in each group were (1) natural saline (NS) control group; (2) LMWH 4.0 mg/kg group; (3) A2 2.5 mg/kg group; (4) A2 group 5.0 mg/kg; (5) A2 10 mg/kg group; (6) D1 2.5 mg/kg group; (7) D1 5.0 mg/kg group; (8) D1 10 mg/kg group. The rats in each group were administered subcutaneously (sc.) into the back, and the administration volume was 1 mL/kg. The modeling experiment was performed 1 hour after administration. A New Zealand rabbit was sacrificed, and the rabbit brain was taken out immediately. Rabbit brain powder infusion was prepared according to the literature method (Thromb Haemost, 2010, 103(5): 994-1004), and stored at −20° C. for use. […] The femoral vein was injected with 2% rabbit brain powder infusion (1 mL/kg). After 20 seconds, the lower margin of the left renal vein was ligated. After the operation, the viscera was placed back into the abdominal cavity and covered with medical gauze (infiltrated with natural saline). […] The length of the thrombus was measured, and the wet weight of the thrombus was weighed and then dry weight was weighed after drying at 50° C. for 24 h. The SPSS software was used to organize and analyze the data, and the measurement data were expressed as mean±standard deviation (x±s). […]

intrinsic factor Xase = biological target: T1, intrinsic factor Xase (Homo sapiens, UniProt P00740); experiment: Xase inhibitory activity assay; format: biochemical; conditions: read-out: Drug concentration required to inhibit 50% of coagulation factor activity (IC50, ng/mL) Xase (converted)
T1 construct: 60 nM FIXa; purchased
T1 sequence (P00740 47-191 limits assumed): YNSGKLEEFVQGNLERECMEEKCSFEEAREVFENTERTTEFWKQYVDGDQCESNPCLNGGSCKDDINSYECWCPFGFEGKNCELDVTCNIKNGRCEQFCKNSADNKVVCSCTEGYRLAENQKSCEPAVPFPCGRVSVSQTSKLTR
T1 sequence (P00740 227-461 limits assumed): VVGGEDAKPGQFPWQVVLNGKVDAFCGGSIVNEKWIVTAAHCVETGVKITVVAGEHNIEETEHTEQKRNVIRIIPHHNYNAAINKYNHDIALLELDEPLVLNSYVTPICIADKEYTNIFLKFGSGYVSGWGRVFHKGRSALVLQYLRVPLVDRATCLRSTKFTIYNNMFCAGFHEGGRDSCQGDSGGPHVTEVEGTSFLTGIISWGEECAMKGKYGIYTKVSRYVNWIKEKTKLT
How it was run: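 Reagents mixed at 37 °C: compound with FVIII (2 IU/ml) and FIXa reagent (60 nM, with FIIa, PC/PS, Ca2+) for 2 min, then FX reagent (50 nM, with thrombin inhibitor) for 1 min, then chromogenic substrate SXa-11. OD405 slope over 7.5 min, relative to buffer control as 100%; IC50 from Hill-equation fit.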

plasma = experiment: TT (thrombin time) clotting time; format: biochemical
FIIa (Homo sapiens) = biological target: T2, FIIa (Homo sapiens); experiment: AT-dependent IIa inhibitory activity assay; format: biochemical; conditions: in presence of AT; read-out: Drug concentration required to inhibit 50% of coagulation factor activity (IC50, ng/mL) Ha (AT)
T2 construct: antithrombin (i.e., active coagulation factor IIa); purchased
T2 sequence (P01008 33-464): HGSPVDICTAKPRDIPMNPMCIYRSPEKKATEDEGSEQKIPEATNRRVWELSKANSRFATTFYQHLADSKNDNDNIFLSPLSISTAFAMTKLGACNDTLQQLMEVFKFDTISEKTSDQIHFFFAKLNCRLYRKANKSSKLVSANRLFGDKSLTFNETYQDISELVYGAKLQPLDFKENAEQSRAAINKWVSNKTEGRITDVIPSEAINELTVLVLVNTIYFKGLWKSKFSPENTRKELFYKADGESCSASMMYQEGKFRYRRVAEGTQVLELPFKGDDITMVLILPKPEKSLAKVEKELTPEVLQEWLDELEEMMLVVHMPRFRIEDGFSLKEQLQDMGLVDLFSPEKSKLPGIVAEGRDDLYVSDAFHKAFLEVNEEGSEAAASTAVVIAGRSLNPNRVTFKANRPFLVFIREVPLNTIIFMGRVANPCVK
How it was run: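 Sample preincubated with 1 IU/mL antithrombin 2 min at 37 °C, then 24 IU/mL FIIa 2 min, then 1.25 mM chromogenic substrate CS-01 (stock concentrations). OD405 rate relative to buffer control gave residual activity; IC50 from Hill-equation fit.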

human-controlled plasma [3] = experiment: Anticoagulant activity assay: APTT clotting time; format: biochemical
How it was run: as §1

FXa (Homo sapiens) = biological target: T3, FXa (Homo sapiens); experiment: AT-dependent Xa inhibitory activity assay; format: biochemical; conditions: in presence of AT; read-out: Drug concentration required to inhibit 50% of coagulation factor activity (IC50, ng/mL) Xa (AT)
T3 construct: 8 μg/mL FXa solution; purchased
T3 sequence (P01008 33-464): as above
How it was run: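 Sample preincubated 1 min at 37 °C with antithrombin (1 IU/mL solution), then FXa (8 µg/mL solution) 1 min, then chromogenic substrate SXa-11 (1.25 mM solution). Rate of OD405 change gives residual FXa activity relative to buffer control; duplicates, IC50 fitted with a Hill equation.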

CC(=O)NC(CO)C(OC1OC(C(=O)O)C(OC2OC(COS(=O)(=O)O)C(OS(=O)(=O)O)C(OC3OC(C(=O)O)C(OC4OC(COS(=O)(=O)O)C(OS(=O)(=O)O)C(OC5OC(C(=O)O)=CC(OC6OC(C)C(OS(=O)(=O)O)C(O)C6OS(=O)(=O)O)C5O)C4NC(C)=O)C(OC4OC(C)C(OS(=O)(=O)O)C(O)C4OS(=O)(=O)O)C3O)C2NC(C)=O)C(OC2OC(C)C(OS(=O)(=O)O)C(O)C2OS(=O)(=O)O)C1O)C(OS(=O)(=O)O)C(O)COS(=O)(=O)O [Compound A2, L-Fuc2S4S-(α1,3)-ΔUA-(α1,3)-{D-GaNAc4S6S-(β1,4)-[L-Fuc2S4S-(α1,3)]-D-GlcA-(β1,3)}n+1-D-GalNAc4S6S-ol]
amount of bleeding (mouse tail bleeding): significantly lower than that in LMWH administration group | Drug concentration required for multiplication of coagulation time (μg/mL) PT (human-controlled plasma [1]): # (>128 μg/mL) | antithrombotic activity [2]: significant antithrombotic activity | IC50 (intrinsic factor Xase): 23.8 nM | Drug concentration required for multiplication of coagulation time (μg/mL) TT (plasma): # (>128 μg/mL) | IC50 (FIIa (Homo sapiens)): > 1970 nM | Drug concentration required for multiplication of coagulation time (μg/mL) APTT (human-controlled plasma [3]): 7.2 µg/mL | IC50 (FXa (Homo sapiens)): > 1970 nM
